Measured values taken from ChEMBL document CHEMBL1156571, “ent-kaurane diterpenoids from the liverwort Jungermannia atrobrunnea” (2008).
Converted amounts (≈) assume the structure as drawn.

System: Candida albicans
Assay: Antifungal activity against Candida albicans ATCC 10231 after 24 hrs by broth microdilution method
Conditions: ATCC 10231, 24 h

Row | Compound | MIC
1 | C=C1C(=O)[C@]23C[C@H]1C(=O)C=C2[C@]1(C)[C@@H](OC(C)=O)CCC(C)(C)[C@H]1[C@@H](OC(C)=O)C3 | 128 µg/mL (≈ 309 µM)
2 | C=C1C(=O)[C@@]23C[C@H](OC(C)=O)[C@@H]4C(C)(C)CC[C@H](OC(C)=O)[C@@]4(C)C2=C[C@@H](O)[C@@H]1C3 | 128 µg/mL (≈ 307 µM)
3 | C=C1C(=O)[C@@]23C[C@H](OC(C)=O)[C@@H]4C(C)(C)CC[C@H](O)[C@@]4(C)C2=C[C@@H](O)[C@@H]1C3 | 128 µg/mL (≈ 342 µM)
4 | CC(=O)O[C@H]1C[C@@]23C[C@@H](C(=O)C=C2[C@]2(C)[C@@H](OC(C)=O)CCC(C)(C)[C@@H]12)[C@@H](C)C3=O | 128 µg/mL (≈ 307 µM)
5 | C=C1[C@H]2C[C@@]3(C[C@H](OC(C)=O)[C@@H]4C(C)(C)CCC[C@@]4(C)C3=CC2=O)[C@@H]1OC(C)=O | 128 µg/mL (≈ 320 µM)
6 | C=C1[C@@H]2CC=C3[C@](C2)(C[C@H](OC(C)=O)[C@@H]2C(C)(C)CCC[C@@]32C)[C@@H]1OC(C)=O | 128 µg/mL (≈ 331 µM)
7 | C=C1[C@H]2CC3=C[C@H](OC(C)=O)[C@@H]4C(C)(C)CC[C@H](OC(C)=O)[C@@]4(C)[C@@]34OO[C@]1(O)[C@H]4[C@H]2O [JUNGERMATROBRUNIN A] | 128 µg/mL (≈ 285 µM)

Further compounds by falling MIC, results first:

Row | MIC | Compound
8 | 128 µg/mL (≈ 372 µM) | C=C1[C@@H]2CC=C3[C@](C2)(C[C@H](O)[C@@H]2C(C)(C)CCC[C@@]32C)[C@@H]1OC(C)=O
9 | 128 µg/mL (≈ 307 µM) | C=C1C(=O)[C@@H]2C3=C(C[C@H](OC(C)=O)[C@@H]4C(C)(C)CC[C@H](OC(C)=O)[C@@]34C)C[C@H]1[C@@H]2O
10 | 128 µg/mL (≈ 342 µM) | C=C1C(=O)[C@@H]2C3=C(C[C@H]1[C@@H]2O)C[C@H](O)[C@@H]1C(C)(C)CC[C@H](OC(C)=O)[C@@]31C
